{"source": "patent US20240216546A1", "about": "“MODEL OPTIMIZED DRUG AND DRUG COMBINATIONS FOR TREATING CANCERS” (My Personal Therapeutics, priority 2021, published 2024)", "origin": "cited, not measured here", "test_system": "non-small cell lung cancer", "conditions": "erlotinib in combination with first line chemotherapy (carboplatin and paclitaxel)", "key": {"[1]": {"conditions": "patients with the KRAS mutation"}}}
{"smiles": "C#Cc1cccc(Nc2ncnc3cc(OCCOC)c(OCCOC)cc23)c1", "note": "[erlotinib]", "values": [{"measurement": "time-to-progression", "setting": "group with wild-type KRAS", "result": 12, "unit": "months"}, {"measurement": "overall survival", "setting": "[1]", "result": "four"}, {"measurement": "time to progression", "setting": "[1]", "result": "three"}]}
